From PubChem BioAssay (NCI)
Several values for one entry are separate records, joined by “and”; a condition that tells them apart may be missing. Equal values may be shown once.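 A five-concentration, 48-hour dose response in 96-well plates underlies each endpoint, interpolated linearly between surrounding concentrations. Here, GI50 denotes the concentration required for 50% inhibition of growth. TGI marks complete inhibition of growth.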

Assays:
Assay in all cases: DTP human tumour cell line panel, 48 h
[1] = test system: UO-31 renal
[2] = test system: SK-OV-3 ovarian
[3] = test system: NCI-H226 lung
[4] = test system: LOX IMVI melanoma
[5] = test system: SF-295 CNS
[6] = test system: HCT-116 colon
[7] = test system: NCI-H522 lung
[8] = test system: HS 578T breast
[9] = test system: A498 renal
[10] = test system: NCI/ADR-RES ovarian

Structure (SMILES) | GI50 [1] | TGI [1] | GI50 [2] | TGI [2] | GI50 [3] | TGI [3] | GI50 [4] | TGI [4] | GI50 [5] | TGI [5] | GI50 [6] | TGI [6] | GI50 [7] | TGI [7] | GI50 [8] | TGI [8] | GI50 [9] | TGI [9] | GI50 [10] | TGI [10]
Clc1ccc(N=CNc2ccc(-c3nc4ccccc4[nH]3)cc2)cc1 | 13.9 µM | > 100 µM | > 100 µM | > 100 µM | 65.4 µM | > 100 µM | 1.37 µM | 24.8 µM | 6.18 µM | > 100 µM | > 100 µM | > 100 µM | > 100 µM | > 100 µM | 91.9 µM | > 100 µM |  |  |  | 
CCCCc1c2c(nc3c1CC/C(=C\c1ccccc1)C3=O)CCCC2 |  | 19.1 µM |  | 22.9 µM |  |  |  | 3.48 µM |  | 16 µM |  | 16.1 µM |  | 6.37 µM |  |  |  |  |  | 
COC(=O)C(NC(=O)c1ccccc1)c1ccc(OC)c(I)c1 (centres undefined) | 76 µM | > 100 µM | 78.2 µM | > 100 µM | > 100 µM | > 100 µM | 46.9 µM | > 100 µM | 66.4 µM | > 100 µM | 33.7 µM | > 100 µM | 43.6 µM | > 100 µM | 77.1 µM | > 100 µM | > 100 µM | > 100 µM | 36.4 µM | > 100 µM
CCOC(=O)c1c(/C=N\Nc2ccccc2)nc2ccccc2c1-c1ccccc1 |  | 98.7 µM |  | > 100 µM |  | > 100 µM |  | > 100 µM |  | > 100 µM |  | > 100 µM |  | 67.1 µM |  |  |  | > 100 µM |  | 
CCOC(=O)NC/C=C/CO |  | > 100 µM |  | > 100 µM |  | > 100 µM |  |  |  |  |  | > 100 µM |  | > 100 µM |  |  |  | > 100 µM |  | 
O=C1NC2(CCCCC2)C2=C1CCCCC2 |  | > 100 µM |  | > 100 µM |  |  |  | > 100 µM |  | > 100 µM |  | > 100 µM |  | > 100 µM |  |  |  | > 100 µM |  | 
O=C(/C=C/N1CCN(c2cccc(Cl)c2)CC1)c1ccc(Cl)cc1 | 31.5 µM | > 100 µM | 50.9 µM | > 100 µM |  |  | 32.3 µM | 96.9 µM | 18.6 µM | 54.2 µM | 27.1 µM | 70.4 µM | 18.9 µM | 54.6 µM | 26.9 µM | 69.6 µM | 21.8 µM | 48.1 µM | 33.2 µM | > 100 µM
NC(=O)NC(=O)C1CCC(=O)N1S(=O)(=O)c1ccc(Cl)cc1 (centres undefined) |  | > 100 µM |  | > 100 µM |  | > 100 µM |  |  |  | > 100 µM |  | > 100 µM |  | > 100 µM |  |  |  |  |  | 
CCCNc1ncnc2c1cnn2C |  |  |  | > 100 µM |  | > 100 µM |  | > 100 µM |  | > 100 µM |  | > 100 µM |  | > 100 µM |  |  |  | > 100 µM |  | 
COC(=O)N/N=C(\c1nc2ccc(Cl)cc2[nH]c1=O)C(O)c1ccc([N+](=O)[O-])cc1 (centres undefined) |  | > 100 µM |  | > 100 µM |  | > 100 µM |  | > 100 µM |  | > 100 µM |  | > 100 µM |  | > 100 µM |  |  |  |  |  | 
Brc1ccc2c(c1)-c1ccccc1C1=NCCN12 | 0.585 µM | 3.81 µM | 2.88 µM | 16.6 µM |  |  | 0.526 µM | 10.6 µM | 0.984 µM | 4 µM | 0.403 µM | 10.2 µM | 0.762 µM | 2.75 µM | 2.8 µM | 12 µM | 0.866 µM | 2.36 µM | 0.897 µM | 26.7 µM
CC1CC2C(=O)N(c3ccccc3)C(=O)C2c2[nH]c3ccccc3c21 (centres undefined) |  |  |  | 36.7 µM |  |  |  | > 100 µM |  | > 100 µM |  |  |  |  |  |  |  | > 100 µM |  | 
Cc1cc2c(=O)cc(-c3ccncc3)oc2c(C(=O)O)c1C |  | > 100 µM |  | > 100 µM |  | > 100 µM |  | > 100 µM |  | > 100 µM |  | > 100 µM |  |  |  |  |  |  |  | 
CCCCCCCCCCCCCCCC(=O)NCC(OCC)OCC |  | > 100 µM |  | > 100 µM |  | > 100 µM |  | > 100 µM |  | > 100 µM |  | > 100 µM |  | > 100 µM |  |  |  |  |  | 
COC(=O)CCSC(=O)Nc1ccccc1Cl |  | > 100 µM |  |  |  | > 100 µM |  | > 100 µM |  | > 100 µM |  | > 100 µM |  | 28.1 µM |  |  |  | > 100 µM |  | 
COc1ccc(-c2ccc(/C=N/n3c(COc4ccc(Cl)c(C)c4)nn(CN4CCOCC4)c3=S)o2)c([N+](=O)[O-])c1 | 28.8 µM | > 100 µM | 34.4 µM | > 100 µM | > 100 µM | > 100 µM |  |  | 18.6 µM | 46.6 µM | 17.6 µM | 34.3 µM | 25.5 µM | > 100 µM | 37.8 µM | > 100 µM | 12.4 µM | 25.7 µM | 27.6 µM | > 100 µM
COc1cccc(OC)c1/C=N\N1C(=O)c2ccccc2C1=O |  | > 100 µM |  |  |  | > 100 µM |  | > 100 µM |  | > 100 µM |  | 87.6 µM |  |  |  |  |  | > 100 µM |  | 
Cc1c2cc[n+](C)cc2c(C)c2c1[nH]c1ccc(Oc3ccccc3)cc12 |  | 40 µM and > 38.1 µM |  | > 73.5 µM and 21.4 µM | 0.797 µM | 28 µM and 8.75 µM | 2.96 µM | 11.3 µM and 50.1 µM |  |  |  | > 100 µM | 2.41 µM and 0.743 µM | 12.1 µM and 8.56 µM |  |  |  | > 100 µM |  | 
O=C(Nc1cccc(C(F)(F)F)c1)Nc1ccc(OCc2nnc(-c3ccccc3)o2)c(F)c1 | 3.11 µM | 21 µM | 5.57 µM | 27.3 µM | 10.7 µM | 52 µM | 4.58 µM | 25.6 µM | 2.7 µM | 14.1 µM | 3.02 µM | 16.5 µM |  |  | 2.5 µM | 14.7 µM | 3.38 µM | 25.8 µM | 4.61 µM | 26.9 µM
NC1CC(n2ccc(=O)[nH]c2=O)OC1C(O)CO (centres undefined) |  | > 100 µM |  | > 100 µM |  | > 100 µM |  | > 100 µM |  | > 100 µM |  | > 100 µM |  | > 100 µM |  |  |  |  |  | 
O=[N+]([O-])c1cccc(C2=NOC3CCCC23)c1 (centres undefined) |  | > 100 µM |  | > 100 µM |  | > 100 µM |  |  |  | > 100 µM |  | > 100 µM |  | > 100 µM |  |  |  | > 100 µM |  | 
